# How the values were obtained:
# [1] = Loss of I2 from water at room temperature (hydrolysis / out gassing); format: physicochemical
# Procedure: The only significant anti-infective iodine species in water is molecular iodine (I2). In the pH range of 6.0<->7.0, I2 is favored when I2 is added directly into water. […] If the pH of the water is kept at about pH 6.0, I2 is favored, but if the pH is above 7.0, I2 will hydrolyze (3) to I^− and HOI and I3^− (7) can form and accumulate in the water. I have determined experimentally that I2 is lost from the water at room temperature at a linear rate of about 0.3 mcg/mL/hour when the pH of the water was adjusted to ˜pH5-5.5 with acetic acid to prolong survival of I2 in water. Thus after 24 hours >90% of the I2 is lost either to hydrolysis
# or volatile I2 via out gassing. At higher pH, the iodine will dissipate faster or be converted to HOI. At neutral pH=7 the I2 loss is ˜0.5 mcg/mL/hr so that >90% is gone within 4 hours.
# [2] = Pets drinking iodinated water, observation for ill effects; format: in vivo, dogs and cats
smiles,measurement,setting,value
"II [I2, molecular iodine]",I2 lost (hydrolysis or out gassing),"[1]; after 24 hours, ~pH5-5.5, room temperature",> 90%
same,I2 loss rate,[1]; neutral pH=7,~0.5 µg/mL/h
same,rate of I2 loss from the water (linear),"[1]; room temperature, water adjusted to ~pH5-5.5 with acetic acid",about 0.3 mcg/mL/hour
same,I2 gone,"[1]; within 4 hours, neutral pH=7",> 90%
same,ill effects,"[2]; dogs and cats followed for 3 weeks, 1-5 mcg/mL in drinking water",no ill effects were noted
same,"changes in pet behavior, food consumption or excretion","[2]; two 35 kg dogs and two 4 kg cats, drinking water with average about 5 mcg/mL I2, followed for 4 days","no obvious changes in pet behavior, food consumption or excretion"

# — US20180125032A1, “Automated method and system for introducing Liquid iodine into drinking water” (priority 2010, published 2018)
